Test results reported in US9510598B2, “Nitrogen-containing heterocyclic compounds for plant disease control” (BAYER CROPSCIENCE AG, priority 2012, dated 2016).
Where “and” joins values, the source holds several entries; their conditions need not be identical. Equal values may be shown once. Read-outs that look alike come from different tables or passages of the source.

Experiments:
[1] = assay type: physicochemical; details: for chromatographic logP: pH 2.7
Botrytis cinerea = test: In vivo preventive test on Botrytis cinerea (grey mould); details: 500 ppm; gherkin plants sprayed 24 hours before contamination; grading 4-5 days after contamination vs control plants
Experimental: Gherkin plants (“Vert petit de Paris” variety), sown in starter cups on a 50/50 peat soil-pozzolana substrate and grown at 24° C., are treated at the Z11 cotyledon stage by spraying with the active ingredient prepared as described above. Plants, used as controls, are treated with the mixture of acetone/tween/DMSO/water not containing the active material. After 24 hours, the plants are contaminated by spraying the cotyledons with an aqueous suspension of cryopreserved Botrytis cinerea spores (50 000 spores per ml). The spores are suspended in a nutrient solution composed of 10 g/L of PDB, 50 g/L of D-Fructose, 2 g/L of NH4NO3 and 1 g/L of KH2PO4. The contaminated gherkin plants are incubated at 17° C. and at 80% relative humidity. Grading (% of efficacy) is carried out 4-5 days after the contamination, in comparison with the control plants.

Septoria tritici = test: In vivo preventive test on Septoria tritici (leaf spot on wheat); details: 500 ppm; wheat plants sprayed 24 hours before contamination; grading 21 to 28 days after contamination vs control plants
Procedure, shortened: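 Scipion wheat at 1-leaf stage sprayed with compound, controls receiving acetone/tween/DMSO/water vehicle; 24 h later leaves inoculated with Septoria tritici spores (500 000 spores per ml). Efficacy (%) graded versus control plants 21 to 28 days after contamination.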

Sphaerotheca fuliginea = test: In vivo preventive test on Sphaerotheca fuliginea (powdery mildew on cucurbits); details: 500 ppm; gherkin plants sprayed 24 hours before contamination; grading 12 days after contamination vs control plants
Experimental: Gherkin plants (“Vert petit de Paris” variety), sown in starter cups on a 50/50 peat soil-pozzolana substrate and grown at 24° C., are treated at the Z11 cotyledon stage by spraying with the active ingredient prepared as described above. Plants, used as controls, are treated with the mixture of acetone/tween/DMSO/water not containing the active material. After 24 hours, the plants are contaminated by spraying the cotyledons with an aqueous suspension of Sphaerotheca fuliginea spores (100 000 spores per ml). The spores are collected from infected plants. […] Grading (% of efficacy) is carried out 12 days after the contamination, in comparison with the control plants.

[2] = method [a]: HPLC/LC-MS on reversed phase at pH 2.7, 0.1% formic acid in water / acetonitrile, gradient 10% to 95% acetonitrile
[3] = HPLC on reversed phase columns, method [a]: pH 2.7, 0.1% formic acid in water / acetonitrile, linear gradient 10% to 95% acetonitrile
[4] = method [a]: HPLC/LC-MS on reversed phase at pH 2.7, 0.1% formic acid in water / acetonitrile, linear gradient 10% to 95% acetonitrile
[5] = HPLC on reversed phase columns, method [a]: pH 2.7, 0.1% formic acid in water and acetonitrile, linear gradient 10% to 95% acetonitrile

## COC1(C(=O)NCC2COC(C)(C)O2)CC(c2ccc3ncc(Br)cc3c2)=NO1 (stereo not shown) [compound 496]
[1]; [2]
  log P: 2.62[a]
Botrytis cinerea
  % of efficacy (protection): 99%
Septoria tritici
  % of efficacy (protection): 100%
Sphaerotheca fuliginea
  % of efficacy (protection): 100%

## C#Cc1cnc2c(Cl)cc(C3=NOC(C)(C(=O)NC4CCC4)C3)cc2c1 (stereo not shown) [compound 544]
[1]; [3]
  log P: 3.15[a]
Botrytis cinerea
  % of efficacy (protection): 100%
Septoria tritici
  % of efficacy (protection): 100%
Sphaerotheca fuliginea
  % of efficacy (protection): 98%

## C#Cc1cnc2c(C)cc(C3=NOC(C)(C(=O)NCCCOCC)C3)cc2c1 (racemic) [compound 546]
[1]; [3]
  log P: 3.04[a]
Botrytis cinerea
  % of efficacy (protection): 100%
Septoria tritici
  % of efficacy (protection): 83%
Sphaerotheca fuliginea
  % of efficacy (protection): 100%

## COC1(C(=O)NCC2COC(C)(C)O2)CC(c2ccc3ncc(I)cc3c2)=NO1 (stereo not shown) [compound 483]
[1]; [2]
  log P: 2.73[a]
Botrytis cinerea
  % of efficacy (protection): 100%
Septoria tritici
  % of efficacy (protection): 100%
Sphaerotheca fuliginea
  % of efficacy (protection): 100%

## CCc1cnc2ccc(C3=NOC(C)(C(=O)NC(C)C)C3)cc2c1 (stereo not shown) [Compound No. 259]
[1]
  chromatographic logP: 1.94
Botrytis cinerea
  % of efficacy (protection): 75%
Septoria tritici
  % of efficacy (protection): 100%
Sphaerotheca fuliginea
  % of efficacy (protection): 94%

## COC1(C(=O)NCC2COC(C)(C)O2)CC(c2cc(Cl)c3ncc(Br)cc3c2)=NO1 (stereo not shown) [compound 568]
[1]; [3]
  log P: 3.11[a]
Botrytis cinerea
  % of efficacy (protection): 99%
Septoria tritici
  % of efficacy (protection): 100%
Sphaerotheca fuliginea
  % of efficacy (protection): 94%

## C#Cc1cnc2ccc(C3=NOC(C)(C(=O)NC(CC)COC)C3)cc2c1 (stereo not shown) [compound 524]
[1]; [3]
  log P: 2.58[a]
Botrytis cinerea
  % of efficacy (protection): 100%
Septoria tritici
  % of efficacy (protection): 93%
Sphaerotheca fuliginea
  % of efficacy (protection): 93%

## C#Cc1cnc2ccc(C3=NOC(C)(C(=O)NC)C3)cc2c1 (stereo not shown) [compound 531]
[1]; [3]
  log P: 1.84[a]
Botrytis cinerea
  % of efficacy (protection): 100%
Septoria tritici
  % of efficacy (protection): 100%
Sphaerotheca fuliginea
  % of efficacy (protection): 98%

## CCOCCCNC(=O)C1(CC)CC(c2ccc3ncc(Br)cc3c2)=NO1 (stereo not shown) [compound 68]
[1]; [4]
  log P: 3.11^[a]
Botrytis cinerea
  % of efficacy (protection): 98%
Septoria tritici
  % of efficacy (protection): 97%
Sphaerotheca fuliginea
  % of efficacy (protection): 98%

## CC(NC(=O)C1(C)CC(c2ccc3ncc(Br)cc3c2)=NO1)C1=NOCC1 (stereo not shown) [compound 293]
[1]; [3]
  log P: 2.34[a]
Botrytis cinerea
  % of efficacy (protection): 97%
Septoria tritici
  % of efficacy (protection): 96%
Sphaerotheca fuliginea
  % of efficacy (protection): 90%

## CCn1cc(CNC(=O)C2(C)CC(c3cc4cc(Br)cnc4c(F)c3F)=NO2)c(C)n1 (stereo not shown) [compound 17]
[1]; method [a]: HPLC/LC-MS on reversed phase at pH 2.7, 0.1% formic acid in water and acetonitrile, linear gradient 10% to 95% acetonitrile
  Log P: 2.69^[a]
Botrytis cinerea
  % of efficacy (protection): 100%
Septoria tritici
  % of efficacy (protection): 100%
Sphaerotheca fuliginea
  % of efficacy (protection): 85%

## C#Cc1cnc2ccc(C3=NOC(C)(C(=O)NC4CC4C4CC4)C3)cc2c1 (stereo not shown) [compound 216]
[1]; [4]
  log P: 2.92^[a]
Botrytis cinerea
  % of efficacy (protection): 99%
Septoria tritici
  % of efficacy (protection): 100%
Sphaerotheca fuliginea
  % of efficacy (protection): 98%

## CCC1(C(=O)NC(C)C)CC(c2ccc3ncc(Br)cc3c2)=NO1 (stereo not shown) [compound 66]
[1]; [4]
  log P: 3.13^[a]
Botrytis cinerea
  % of efficacy (protection): 100%
Septoria tritici
  % of efficacy (protection): 100%
Sphaerotheca fuliginea
  % of efficacy (protection): 98%

## C#Cc1cnc2ccc(C3=NOC(OC)(C(=O)NC(C)CC(=O)OC)C3)cc2c1 (stereo not shown) [compound 512]
[1]; [3]
  log P: 2.28[a]
Botrytis cinerea
  % of efficacy (protection): 98%
Septoria tritici
  % of efficacy (protection): 97%
Sphaerotheca fuliginea
  % of efficacy (protection): 97%

## C#Cc1cnc2ccc(C3=NOC(C)(C(=O)NC4CCC4)C3)cc2c1 (stereo not shown) [compound 120]
[1]; [4]
  log P: 2.58^[a]
Botrytis cinerea
  % of efficacy (protection): 100%
Septoria tritici
  % of efficacy (protection): 100%
Sphaerotheca fuliginea
  % of efficacy (protection): 94%

## Cc1cc(C2=NOC(C)(C(=O)NCC3COC(C)(C)O3)C2)cc2cc(Br)cnc12 (stereo not shown) [compound 538]
[1]; [3]
  log P: 3.39[a]
Botrytis cinerea
  % of efficacy (protection): 100%
Septoria tritici
  % of efficacy (protection): 100%
Sphaerotheca fuliginea
  % of efficacy (protection): 100%

## C#Cc1cnc2ccc(C3=NOC(C)(C(=O)Nc4cnn(C)c4)C3)cc2c1 (stereo not shown) [compound 462]
[1]; [2]
  log P: 1.98[a]
Botrytis cinerea
  % of efficacy (protection): 98%
Septoria tritici
  % of efficacy (protection): 100%
Sphaerotheca fuliginea
  % of efficacy (protection): 98%

## CCOCCCNC(=O)C1(C)CC(c2ccc3ncc(Br)cc3c2)=NO1 (stereo not shown) [compound 32]
[1]; [4]
  log P: 2.69^[a]
Botrytis cinerea
  % of efficacy (protection): 98%
Septoria tritici
  % of efficacy (protection): 79% and 97%
Sphaerotheca fuliginea
  % of efficacy (protection): 100%

## C#Cc1cnc2ccc(C3=NOC(C)(C(=O)NCC4COC(C)(C)O4)C3)cc2c1 (stereo not shown) [compound 125]
[1]; [4]
  log P: 2.35^[a]
Botrytis cinerea
  % of efficacy (protection): 100%
Septoria tritici
  % of efficacy (protection): 100%
Sphaerotheca fuliginea
  % of efficacy (protection): 98%

## C#Cc1cnc2ccc(C3=NOC(OC)(C(=O)N(O)C(C)C)C3)cc2c1 (stereo not shown) [compound 475]
[1]; [2]
  log P: 2.08[a]
Botrytis cinerea
  % of efficacy (protection): 100%
Septoria tritici
  % of efficacy (protection): 83%
Sphaerotheca fuliginea
  % of efficacy (protection): 88%

## C#Cc1cnc2ccc(C3=NOC(C)(C(=O)NOC(C)C4CC4)C3)cc2c1 (stereo not shown) [compound 471]
[1]; [2]
  log P: 2.43[a]
Botrytis cinerea
  % of efficacy (protection): 89%
Septoria tritici
  % of efficacy (protection): 97%
Sphaerotheca fuliginea
  % of efficacy (protection): 98%

## C=CC1(C(=O)NC(C)C)CC(c2ccc3ncc(Br)cc3c2)=NO1 (stereo not shown) [compound 734]
[1]; [5]
  log P: 3.08[a]
Botrytis cinerea
  % of efficacy (protection): 95%
Septoria tritici
  % of efficacy (protection): 100%
Sphaerotheca fuliginea
  % of efficacy (protection): 98%

## C#Cc1cnc2ccc(C3=NOC(C(=O)NCc4cn(CC)nc4C)(C(F)F)C3)cc2c1 (stereo not shown) [compound 613]
[1]; [3]
  log P: 2.39[a]
Botrytis cinerea
  % of efficacy (protection): 100%
Septoria tritici
  % of efficacy (protection): 79%
Sphaerotheca fuliginea
  % of efficacy (protection): 100%

## C#Cc1cnc2c(Cl)cc(C3=NOC(C)(C(=O)NCCCOCC)C3)cc2c1 (racemic) [compound 545]
[1]; [3]
  log P: 2.94[a]
Botrytis cinerea
  % of efficacy (protection): 100%
Septoria tritici
  % of efficacy (protection): 100%
Sphaerotheca fuliginea
  % of efficacy (protection): 100%

## C#Cc1cnc2ccc(C3=NOC(C(=O)NCC4COC(C)(C)O4)(C(F)F)C3)cc2c1 (stereo not shown) [compound 614]
[1]; [3]
  log P: 2.64[a]
Botrytis cinerea
  % of efficacy (protection): 100%
Septoria tritici
  % of efficacy (protection): 97%
Sphaerotheca fuliginea
  % of efficacy (protection): 92%

## C#Cc1cnc2c(Cl)cc(C3=NOC(C)(C(=O)NC(C)C)C3)cc2c1 (stereo not shown) [compound 543]
[1]; [3]
  log P: 2.96[a]
Botrytis cinerea
  % of efficacy (protection): 100%
Septoria tritici
  % of efficacy (protection): 100%
Sphaerotheca fuliginea
  % of efficacy (protection): 100%

## C=CC1(C(=O)NCC2COC(C)(C)O2)CC(c2ccc3ncc(I)cc3c2)=NO1 (stereo not shown) [compound 729]
[1]; [5]
  log P: 3.11[a]
Botrytis cinerea
  % of efficacy (protection): 97%
Septoria tritici
  % of efficacy (protection): 100%
Sphaerotheca fuliginea
  % of efficacy (protection): 100%

## C#Cc1cnc2ccc(C3=NOC(C)(C(=O)NCC)C3)cc2c1 (stereo not shown) [compound 527]
[1]; [3]
  log P: 2.12[a]
Botrytis cinerea
  % of efficacy (protection): 100%
Septoria tritici
  % of efficacy (protection): 97%
Sphaerotheca fuliginea
  % of efficacy (protection): 94%

## CC(C)NC(=O)C1(C)CC(c2ccc3ncc(I)cc3c2)=NO1 (stereo not shown) [Compound No. 38, 3-(3-iodoquinolin-6-yl)-N-isopropyl-5-methyl-4,5-dihydro-1,2-oxazole-5-carboxamide]
[1]
  chromatographic logP: 2.88
Botrytis cinerea
  % of efficacy (protection): 100%
Septoria tritici
  % of efficacy (protection): 100%
Sphaerotheca fuliginea
  % of efficacy (protection): 97%

## CC(C)NC(=O)C1(C)CC(c2cc(Cl)c3ncc(Br)cc3c2)=NO1 (stereo not shown) [compound 541]
[1]; [3]
  log P: 3.29[a]
Botrytis cinerea
  % of efficacy (protection): 100%
Septoria tritici
  % of efficacy (protection): 100%
Sphaerotheca fuliginea
  % of efficacy (protection): 98%

## COC1(C(=O)NCc2cnc(C)cn2)CC(c2cc(C)c3ncc(Br)cc3c2)=NO1 (stereo not shown) [compound 596]
[1]; [3]
  log P: 2.78[a]
Botrytis cinerea
  % of efficacy (protection): 99%
Septoria tritici
  % of efficacy (protection): 100%
Sphaerotheca fuliginea
  % of efficacy (protection): 83%

## C#Cc1cnc2ccc(C3=NOC(C)(C(=O)NCc4cnn(Cc5ccccc5)c4)C3)cc2c1 (stereo not shown) [compound 185]
[1]; [4]
  log P: 2.64^[a]
Botrytis cinerea
  % of efficacy (protection): 95%
Septoria tritici
  % of efficacy (protection): 86%
Sphaerotheca fuliginea
  % of efficacy (protection): 78%

## C#Cc1cnc2ccc(C3=NOC(C=C)(C(=O)NC(C)C)C3)cc2c1 (stereo not shown) [compound 727]
[1]; [5]
  log P: 2.73[a]
Botrytis cinerea
  % of efficacy (protection): 98%
Septoria tritici
  % of efficacy (protection): 100%
Sphaerotheca fuliginea
  % of efficacy (protection): 98%

## COC1(C(=O)NC2CC2)CC(c2ccc3ncc(Br)cc3c2)=NO1 (stereo not shown) [compound 508]
[1]; [2]
  log P: 2.35[a]
Botrytis cinerea
  % of efficacy (protection): 100%
Septoria tritici
  % of efficacy (protection): 94%
Sphaerotheca fuliginea
  % of efficacy (protection): 98%
